Assay [1] relates to MHC class-I molecule expression on B16/BL6 cells. The assay is described as follows: MHC class-I molecule expression-promoting activity. It counts as cell-based, mouse. The conditions noted are these: concentration giving twice-promoted MHC class-I expression relative to untreated control, 72 hours culture with compound. The method, then: The cyclic tetrapeptide derivatives of the present invention were investigated for their MHC class-I molecule expression-promoting actions in the following test.
The cancer cells used were mouse melanoma, B16/BL6 cells, provided by the National Cancer Institute, U.S.A. Said cells were cultured in MEM media supplemented with 10% FBS at 37° C., 5% CO2 in an humidified incubator.
A compound to be tested was preliminarily dissolved in dimethylsulfoxide (DMSO) and adjusted to a concentration of 100 mM or 10 mM (stock solution). […] Trichostatin A was used as a positive control compound for MHC class-I molecule expression-promoting action due to histone deacetylase enzyme-inhibiting activity. DMSO used as a solvent for the stock solution of a test compound would inevitably be introduced into the medium in the test; however, it had been separately confirmed not to affect the test results in amounts within the range used in the test.
Said B16/BL6 cells were inoculated on a 96-well microplate at a cell density of 5000 cells per well, each well containing 200 μAl of said medium. After culturing for 24 hours, 10 μl of a sample containing a given amount of the stock solution of a test compound which had been diluted in the medium was added and cultured for additional 72 hours. Thereafter, each well was washed once with PBS (phosphate buffered saline) and floating cells and the medium were removed. Then, the well was treated with 0.1% glutaraldehyde solution for 3 minutes to fix the cells.
The amount of MHC class-I molecule expressed on the surface of the fixed cells was measured as follows. Anti-H-2K^bD^bD^d antibody, which is an antibody against mouse MHC class-I molecule (commercially available from Meiji Milk Co., Ltd), was used as a primary antibody, biotinylated anti-mouse IgG+M (commercially available from Chemicon) was used as a secondary antibody, and streptavidin-galactosidase conjugate (commercially available from BRL) was reacted as a labeling enzyme. The amount of the thus labeled enzyme-galactosidase was measured in a microplate reader by recording the fluorescent intensity (excitation: 365 nm, fluorescence: 450 nm) resulting from the enzyme reaction product using 4-methylumbelliferyl-D-galactoside (commercially available from Nacalai Tesque) as a substrate. A fluorescence intensity measured for another well to which no test compound was added and which was treated in a similar manner without adding said primary antibody was used as a background level. The value obtained by subtracting said background level from the actually measured value (an apparent value including the background level) was defined as a true measurement reflecting the amount of expressed MHC class-I molecule.
A group without the addition of any test compound was used as a control group and the measurement of MHC class-I molecule expressed in said group was used as a standard value. The amount of MHC class-I molecule expressed at an addition concentration of each test compound was shown as a relative amount based on said standard value set to one (1). The strength of each test compound activity was compared at a concentration which provides twice-promoted expression (C×2).

For assay [2], the system named is histone deacetylase partially purified from B16/BL6 cells. As to the kind of experiment: Inhibitory activity against histone deacetylase enzyme. It counts as biochemical, mouse. The conditions noted are these: crude enzyme from B16/BL6 cells, [3H]acetylated histone H4 peptide substrate, 37 for 3 hours; read-out: 50% inhibitory concentration. The method, then: The preparation of histone deacetylase was performed essentially according to the method of Yoshida et al. (J. Biol. Chem., 265, 17174-17179, 1990). The enzyme to be used was partially purified from B16/BL6 cells. The cells were suspended in HDA buffer (15 mM potassium phosphate, 5% glycerol, 0.2 mM EDTA, 1 mM 2-mercaptoethanol, pH 7.5), homogenized and centrifuged (2500× g, 10 min) to collect the nuclei, which were then homogenized in the same buffer containing 1 M (NH4)2SO4. After ultrasonic disruption and centrifugation, the concentration of (NH4)2SO4 in the collected supernatant was increased to 3.5 M to precipitate histone deacetylase. This precipitate was re-dissolved in HDA buffer, subjected to gel filtration to replace the solvent by HDA buffer, and used as a crude histone deacetylase enzyme solution.
As a substrate, a synthetic substrate peptide, [^3H]acetylated histone H4 peptide was used. This [^3H]acetylated histone H4 peptide was obtained by synthesizing the N-terminal peptide of histone H4; […] (SEQ ID NO: 1: the C-terminal being cysteine) and then radioactively acetylating with ^3H-acetic anhydride.
An assay was performed by incubating the synthetic substrate solution and the enzyme solution at 37 for 3 hours in the presence of a compound to be tested (reaction volume, 100 μl). The reaction was stopped by adding 25 μl of 1 M HCl and 0.2 M acetic acid, and [^3H]acetate cleaved by the enzyme reaction was extracted with ethyl acetate for radioactivity measurement. For a control group, the same procedure was repeated without addition of any test compound to the reaction system. Each test compound was evaluated for a concentration required to cause 50% inhibition of the histone deacetylase enzyme activity in the control group (50% inhibitory concentration).

The structures appear in SMILES notation. Non-standard residues stand in square brackets, D forms with d. Residues, ends and D or L forms follow the SMILES beside them. ξ: configuration not given here. *: point of attachment. Asu = N[C@@H](CCCCCC(=O)O)C(=O)O; Cha = N[C@@H](CC1CCCCC1)C(=O)O; Ile(3ξ) = CCC(C)[C@H](N)C(=O)O; dCha = N[C@H](CC1CCCCC1)C(=O)O; Aic = NC1(C(=O)O)Cc2ccccc2C1; Ac8c = NC1(C(=O)O)CCCCCCC1; Ac7c = NC1(C(=O)O)CCCCCC1; Pip = O=C(O)[C@@H]1CCCCN1; dPip = O=C(O)[C@H]1CCCCN1; Ac6c = NC1(C(=O)O)CCCCC1; Ac5c = NC1(C(=O)O)CCCC1; Aib = CC(C)(N)C(=O)O; NHOH = ON*

In the case of `O=C(CCCCC[C@@H]1NC(=O)[C@H]2CCCN2C(=O)[C@H](Cc2ccccc2)NC(=O)C2(CCCCCCC2)NC1=O)NO` [CHAP76, cyclo(-L-Asu(NHOH)-Acc8-L-Phe-D-Pro-)] (cyclo([Asu](NHOH)[Ac8c]F[dP])), the “Twice promoting concentration Cx2” value in assay [1] came to 1.88 nM. Moreover, the IC50 in assay [2] amounted to 3.99 nM.

`CC1(C)NC(=O)[C@H](CCCCCC(=O)NO)NC(=O)[C@H]2CCCN2C(=O)[C@H](Cc2ccccc2)NC1=O` [CHAP15, cyclo(-L-Asu(NHOH)-Aib-L-Phe-D-Pro-), reference compound] (cyclo([Aib]F[dP][Asu](NHOH))): the “Twice promoting concentration Cx2” value in assay [1] is 33.2 nM. Also, the IC50 in assay [2] was 5.17 nM.

As to `O=C(CCCCC[C@@H]1NC(=O)[C@H]2CCCCN2C(=O)[C@H](CC2CCCCC2)NC(=O)[C@@H](CC2CCCCC2)NC1=O)NO` [CHAP79, cyclo(-L-Asu(NHOH)-D-Cha-L-Cha-D-Pip-)] (cyclo([Asu](NHOH)[dCha][Cha][dPip])), the “Twice promoting concentration Cx2” value in assay [1] was determined as 2.79 nM. Also, the IC50 in assay [2] was determined as 3.9 nM.

On to `O=C(CCCCC[C@@H]1NC(=O)[C@H]2CCCN2C(=O)[C@H](Cc2ccccc2)NC(=O)C2(Cc3ccccc3C2)NC1=O)NO` [CHAP81, cyclo(-L-Asu(NHOH)-2Ain-L-Phe-D-Pro-)] (cyclo([Aic]F[dP][Asu](NHOH))), for which the “Twice promoting concentration Cx2” value in assay [1] worked out at 1.29 nM. Further, in assay [2], the IC50 stood at 0.98 nM.

On to `O=C(CCCCC[C@@H]1NC(=O)[C@H]2CCCN2C(=O)[C@H](Cc2ccccc2)NC(=O)C2(CCc3ccccc32)NC1=O)NO` (single isomer, unassigned) [CHAP83, cyclo(-L-Asu(NHOH)-1Ain(s)-L-Phe-D-Pro-)], for which, in assay [1], the “Twice promoting concentration Cx2” value came out at 2.29 nM. Besides, the IC50 in assay [2] was found to be 1.95 nM.

In the case of `O=C(CCCCC[C@@H]1NC(=O)[C@H]2CCCN2C(=O)[C@H](Cc2ccccc2)NC(=O)C2(CCCCCC2)NC1=O)NO` [CHAP71, cyclo(-L-Asu(NHOH)-Acc7-L-Phe-D-Pro-)] (cyclo([Asu](NHOH)[Ac7c]F[dP])), the “Twice promoting concentration Cx2” value in assay [1] turned out to be 2.76 nM. In assay [2], the IC50 amounted to 2.14 nM.

Consider `O=C(CCCCC[C@@H]1NC(=O)[C@H]2CCCCN2C(=O)[C@H](Cc2ccccc2)NC(=O)C2(CCCCCCC2)NC1=O)NO` [CHAP90, cyclo(-L-Asu(NHOH)-Acc8-L-Phe-D-Pip-)] (cyclo([Asu](NHOH)[Ac8c]F[dPip])), for which the “Twice promoting concentration Cx2” value in assay [1] stood at 3.96 nM. For the same compound, in assay [2], the IC50 stood at 2.75 nM.

Turning to `O=C(CCCCC[C@@H]1NC(=O)[C@H]2CCCN2C(=O)[C@H](Cc2ccccc2)NC(=O)C2(CCCCC2)NC1=O)NO` [CHAP55, cyclo(-L-Asu(N-HOH)-Acc6-L-Phe-D-Pro-)] (cyclo([Ac6c]F[dP][Asu](NHOH))), the “Twice promoting concentration Cx2” value in assay [1] is 5.38 nM. Moreover, the IC50 in assay [2] was 2.19 nM.

For the compound `CC(C)C[C@@H]1NC(=O)[C@@H](CC2CCCCC2)NC(=O)[C@H](CCCCCC(=O)NO)NC(=O)[C@H]2CCCCN2C1=O` [CHAP85, cyclo(-L-Asu(NHOH)-D-Cha-L-Leu-D-Pip-)] (cyclo([Asu](NHOH)[dCha]L[dPip])), the “Twice promoting concentration Cx2” value in assay [1] worked out at 2.26 nM. The IC50 in assay [2] was found to be 1.96 nM.

For `O=C(CCCCC[C@@H]1NC(=O)[C@H]2CCCCN2C(=O)[C@H](Cc2ccccc2)NC(=O)C2(Cc3ccccc3C2)NC1=O)NO` [CHAP91, cyclo(-L-Asu(NHOH)-2Ain-L-Phe-D-Pip-)] (cyclo([Aic]F[dPip][Asu](NHOH))), the “Twice promoting concentration Cx2” value in assay [1] was 2.48 nM. Moreover, the IC50 in assay [2] came out at 1.2 nM.

As to `CCC(C)[C@@H]1NC(=O)[C@@H](CC2CCCCC2)NC(=O)[C@H](CCCCCC(=O)NO)NC(=O)[C@@H]2CCCCN2C1=O` (stereo partly drawn) [CHAP87, cyclo(-L-Asu(NHOH)-D-Cha-L-Ile-L-Pip-)] (cyclo([Asu](NHOH)[dCha][Ile(3ξ)][Pip])), the “Twice promoting concentration Cx2” value in assay [1] turned out to be 5.39 nM. The IC50 in assay [2] was 1.98 nM.

For `CC[C@H](C)[C@@H]1NC(=O)[C@@H](CC2CCCCC2)NC(=O)[C@H](CCCCCC(=O)NO)NC(=O)[C@H]2CCCCN2C1=O` [CHAP86, cyclo(-L-Asu(NHOH)-D-Cha-L-Ile-D-Pip-)] (cyclo([Asu](NHOH)[dCha]I[dPip])), the “Twice promoting concentration Cx2” value in assay [1] worked out at 3.29 nM. Also, the IC50 in assay [2] came to 3.14 nM.

On to `O=C(CCCCC[C@@H]1NC(=O)[C@H]2CCCN2C(=O)[C@H](Cc2ccccc2)NC(=O)C2(CCc3ccccc32)NC1=O)NO` (single isomer, unassigned) [CHAP82, cyclo(-L-Asu(NHOH)-1Ain(f)-L-Phe-D-Pro-)], for which the “Twice promoting concentration Cx2” value in assay [1] stood at 2.69 nM. The IC50 in assay [2] stood at 1.12 nM.

Take `CC(C)C[C@@H]1NC(=O)[C@@H](CC2CCCCC2)NC(=O)[C@H](CCCCCC(=O)NO)NC(=O)[C@@H]2CCCCN2C1=O` [CHAP84, cyclo(-L-Asu(NHOH)-D-Cha-L-Leu-L-Pip-)] (cyclo([Asu](NHOH)[dCha]L[Pip])): the “Twice promoting concentration Cx2” value in assay [1] is 5.65 nM. Besides, the IC50 in assay [2] came to 2.22 nM.

Regarding `O=C(CCCCC[C@@H]1NC(=O)[C@@H]2CCCCN2C(=O)[C@H](CC2CCCCC2)NC(=O)[C@@H](CC2CCCCC2)NC1=O)NO` [CHAP78, cyclo(-L-Asu(NHOH)-D-Cha-L-Cha-L-Pip-)] (cyclo([Asu](NHOH)[dCha][Cha][Pip])), the “Twice promoting concentration Cx2” value in assay [1] is 2.35 nM. Also, the IC50 in assay [2] was found to be 3.88 nM.

Regarding `O=C(CCCCC[C@@H]1NC(=O)[C@H]2CCCN2C(=O)[C@H](Cc2ccccc2)NC(=O)C2(CCCC2)NC1=O)NO` [CHAP54, cyclo(-L-Asu(NHOH)-Acc5-L-Phe-D-Pro-)] (cyclo([Ac5c]F[dP][Asu](NHOH))), the “Twice promoting concentration Cx2” value in assay [1] turned out to be 5.67 nM. Moreover, the IC50 in assay [2] was 3.02 nM.

Values taken from patent publication US6825317B2, “Cyclic tetrapeptide derivatives and pharmaceutical uses thereof” (Sumitomo Pharmaceuticals Company, Limited, priority 1999, dated 2004).
